We go through three compounds from paper PMC6308799, “In vitro and in vivo Inhibitory Activity of NADPH Against the AmpC BER Class C β-Lactamase” (Frontiers in Cellular and Infection Microbiology, 2018).

The target in experiment [1] is T1, AmpC EC2 (Escherichia coli, UniProt A7TUE6). The experiment in a line: nitrocefin hydrolysis initial velocity at […] ([…] inhibition range for the set). In kind it is biochemical.
Experiment [2] addresses T1, AmpC EC2. The experiment in a line: nitrocefin hydrolysis initial velocity at […] NADPH. In kind it is biochemical.
The target of experiment [3] is T1, AmpC EC2. Description: ITC (KD […]); also steady-state nitrocefin kinetics (competitive, Ki […]). The experiment is classed as binding.
The target in the next experiment is T2, CMY-2 (Klebsiella pneumoniae, UniProt Q48434).
T2 construct: gene blaCMY-2
The experiment in a line: nitrocefin hydrolysis initial velocity at […] NADPH. In kind it is biochemical.

A further experiment deals with T3, CMY-10 (Klebsiella aerogenes, UniProt Q99QC1).
T3 construct: gene blaCMY-10
Description: nitrocefin hydrolysis initial velocity at […] NADPH. The experiment is classed as biochemical.

Take `Cc1cc2nc3c(=O)[nH]c(=O)nc-3n(C[C@H](O)[C@H](O)[C@H](O)COP(=O)(O)OP(=O)(O)OC[C@H]3O[C@@H](n4cnc5c(N)ncnc54)[C@H](O)[C@@H]3O)c2cc1C` [FAD]: the “nitrocefin hydrolysis initial velocity at 2 mM (~15-55% inhibition range for the)” value at AmpC EC2 [1] was “all tested adenosine dinucleotides including FAD, NAD, NADP, and NADPH reduced the initial velocity of nitrocefin hydrolysis catalyzed by AmpC BER”.

What is called Kd is the equilibrium constant for the complex coming apart. Low values mean a tighter complex, high ones a looser complex. In the case of `NC(=O)C1=CN([C@@H]2O[C@H](COP(=O)(O)OP(=O)(O)OC[C@H]3O[C@@H](n4cnc5c(N)ncnc54)[C@H](OP(=O)(O)O)[C@@H]3O)[C@@H](O)[C@H]2O)C=CC1` [NADPH], the “nitrocefin hydrolysis initial velocity at 2 mM NADPH” value at AmpC EC2 [2] was “NADPH also reduced the initial velocity of nitrocefin hydrolysis catalyzed by other class C β-lactamases including ACC-1, AmpC EC2, CMY-2, and CMY-10”; at CMY-2 it was “NADPH also reduced the initial velocity of nitrocefin hydrolysis catalyzed by other class C β-lactamases including ACC-1, AmpC EC2, CMY-2, and CMY-10”; on CMY-10, “NADPH also reduced the initial velocity of nitrocefin hydrolysis catalyzed by other class C β-lactamases including ACC-1, AmpC EC2, CMY-2, and CMY-10”. Besides, the equilibrium dissociation constant (Kd) at AmpC EC2 [3] was 40 µM.

On to `NC(=O)c1ccc[n+]([C@@H]2O[C@H](COP(=O)([O-])OP(=O)(O)OC[C@H]3O[C@@H](n4cnc5c(N)ncnc54)[C@H](O)[C@@H]3O)[C@@H](O)[C@H]2O)c1` [NAD], for which, at AmpC EC2 [1], the “nitrocefin hydrolysis initial velocity at 2 mM (~15-55% inhibition range for the)” value was “all tested adenosine dinucleotides including FAD, NAD, NADP, and NADPH reduced the initial velocity of nitrocefin hydrolysis catalyzed by AmpC BER”.
